Source: patent US4020076A, “Novel phosphoryloxy-thiazoles” (priority 1974, dated 1977)
Like-named read-outs stand apart in the source and are kept apart here.

How the values were obtained:
[1] = tested on: Drosophila melanogaster; test: Vapor activity against Drosophila melanogaster; assay type: in vivo; conditions: inhaled or nasal, read-out: percentage of mortality
Method: a. Activity against Drosophila melanogaster
This test measures the vapor activity of the compounds and the less than 48 hours old insects were placed in a Petri dish with a 10 cm diameter connected by a tergal screen to a crystallizer of the same diameter in which the test compound in acetone solution is placed. The said solution is evaporated after the insects have been placed and 3 tests with 25 insects were run for each concentration. The results are expressed in Table I as a percentage of mortality after 1, 2, 4 and 6 hours.

[2] = tested on: Meloidogynes spec; test: Nematocidal activity against Meloidogynes spec (tomato root galls); assay type: in vivo; conditions: 250 Kg/ha
Method: a. Activity against Meloidogynes spec
A volume of about 3 liters of dirt infested with Meloidogynes spec was placed in a plastic sack. Nematocidal treatments are considered effective to a depth of 30 cm, a volume of 3 liters of dirt corresponding to a surface area of 100 cm^ 2 or 10^-^6 ha (since 100 cm^ 2 × 30 cm = 3000 ml or 3 liters). Each volume of infested dirt received 100 ml of an aqueous suspension containing 0.250 g of the test product (corresponding to 250 Kg/ha) and the controls received only 100 ml of water. The plastic sacks containing the dirt were immediately sealed after the treatment and then agitated to obtain a good distribution of the product. Two weeks after the treatment, the sacks were opened and the dirt was used to plant 3 tomato plants of St. Pierre variety. The plants used were raised in the greenhouse with dirt sterilized with heat to obtain plants free of nematodes. Three plants were used for each test which was run 6 times for each treatment. Two months after planting the tomatoes were removed from the dirt and the efficacy was determined by counting the number of galls observed on the roots. A correlation between the population of Meloidogynes in the pot and the number of galls exists.

## CCOc1nc(OP(=S)(OC)OC)c(C#N)s1 [Compound C, 2-ethoxy-4-dimethoxythiophosphoryloxy-5-cyano-thiazole]
[1]; 1 H
  mortality at 5 ppm: 98%
  mortality at 50 ppm: 100%
  mortality at 500 ppm: 100%
[1]; 4 H
  mortality at 5 ppm: 100%
  mortality at 50 ppm: 100%
  mortality at 500 ppm: 100%
[1]; 6 H
  mortality at 5 ppm: 100%
  mortality at 50 ppm: 100%
  mortality at 500 ppm: 100%
[2]
  Relative efficacity in % as compound to controls: 67.4%
[2]; control 44.4
  Number of galls per foot: 32.77
[2]; control 222
  Total number of galls: 295
